Results published in US20040115790A1, “Method for production of secreted proteins in fungi” (priority 2001, published 2004).

How the values were obtained:
A. niger AB4.1 = assay: Northern analysis of transcript levels in DTT treated A. niger cultures; assay type: cell-based, Aspergillus niger; conditions: 20 mM DTT
Method: The Aspergillus niger strains used in the experiments were AB4.1 (van Hartingsveldt et al., 1987) and AS1.1 (Ngiam et al., 2000). Spores resuspended in 0.1% Tween 20 (Sigma, UK) were used to inoculate liquid cultures to a final density of 1×10^5 spores per ml of medium. The strains were maintained on potato dextrose agar slopes (Difco, USA) with a supplement of 10 mM uridine for A. niger AB4.1. Slopes were grown at 30° C. until they had sporulated and made fresh for each experiment. ACMS/N/P medium (Archer et al., 1990) was used for all the experiments involving liquid culture. A. niger AB4.1 cultures were again supplemented with 10 mM uridine. Cultures were grown in 100 ml aliquots of medium in 250 ml conical flasks at 25° C. and 150 rpm. In the DTT stress experiments, AB4.1 cultures were grown for 44 hours before addition of 1 ml of 2M DTT solution to give a final concentration of 20 mM. […]
Total RNA was extracted from 100 mg of freeze dried, ground mycelia using the RNeasy Plant Mini Kit (Qiagen, UK) according to the manufacturer's instructions. RNA was quantified by reading absorbances at 230, 260 and 280 nm on a Uvikon 850 spectrophotometer (Kontron Instruments, UK). Ratios of over 2.0 for the 260 nm:280 nm readings were accepted as being indicative of good quality RNA. RNA quality was also assessed by running samples on 7% formaldehyde gels (Sambrook et al., 1989). […]

T. reesei Rut-C30 [1] = assay: Northern analysis of transcript levels in treated T. reesei cultures; conditions: for Expression of the short form of hac1 mRNA: normalised with total hac1 signal
Method: T. reesei strain Rut-C30 (Montenecourt & Eveleigh, 1979) was cultivated on minimal medium ((H4)2SO4 7.6 g l^−1, KH2PO4 15.0 g l^−1, MgSO4.7H2O 0.5 g l^−1, CaCl2.H2O 0.2 g l^−1, CoCl2 3.7 mg l^−1, FeSO4.7H2O 5 mg l^−1, ZnSO4.7H2O 1.4 mg l^−1, MnSO4.7H2O 1.6 mg l^−1, pH adjusted to 5.2 with KOH) that contained lactose 20 g l^−1 as a carbon source. Spore suspension with 2×10^7 spores (stored in −80° C. in 20% glycerol) was inoculated into 200 ml of the medium, grown in shake flasks at 28° C. with shaking at 210 rpm. After 4 days of cultivation the cultures were diluted 1/10 into fresh medium, grown further for 24 h, and treated either with 10 mM dithiothreitol (DTT), 50 μg/ml brefeldin A (BFA) or 5 μM Ca^2+-ionophore A23187. A corresponding volume of the solvent of the stock solution was added into the untreated control cultures (0.2% and 0.5% DMSO for the control cultures for A23187 and BFA treatment, respectively, and double distilled water for the control for DTT treatment).
For the Northern analysis mycelial samples were collected from cultures treated with DTT, BFA or A23187 and from the untreated control cultures after 0, 15, 30, 60, 90, 120, 240 and 360 minutes of the treatment. The first sample (the time point 0 min was withdrawn immediately before addition of DTT, BFA or A23187). The mycelium was filtered, washed with equal volume of 0.7% NaCl, frozen immediately in liquid nitrogen, and stored at −80° C. Total RNA was isolated using the Trizol™ Reagent (Gibco BRL) essentially according to manufacturer's instructions. Northern blotting and hybridisation was carried out according to standard procedures (Sambrook et al). Full-length cDNA of the genes were used as probes.
Northern analysis of the samples collected during the treatment with A23187, DTT or BFA was carried out to study the effect of the treatments at transcriptional level.

T. reesei Rut-C30 [2] = assay: Metabolic labelling (35S-methionine): total protein synthesis and secretion in treated T. reesei cultures; assay type: cell-based, Trichoderma reesei; conditions: percentage of non-treated control cultures, 5 μM A23187, 50 μg/ml BFA or 10 mM DTT; for Total protein secretion rate: TCA insoluble radioactivity in culture supernatant
T. reesei Rut-C30 [3] = assay: Synthesis and secretion of labelled CBHI (2D gel, phosphorimager) in treated T. reesei cultures; assay type: cell-based, Trichoderma reesei; conditions: for CBHI synthesis rate / CBHI secretion rate: percentage of non-treated control cultures; for CBHI secretion rate: production into culture medium; for Minimum secretion time of CBHI: untreated cells 11 min
Method: Proteins were metabolically labelled with ^35S-methionine using the methods described in (Pakula et al. 2000). The preparation of the samples and analysis of the labelled proteins were carried out essentially as in (Pakula et al. 2000). The labelling experiment was started after 10 min of addition of DTT or A23187 or after 15 min of addition of BFA. 1 mCi of [^35S]-methionine (Amersham S J 1015, in vivo cell labelling grade, 1000 Ci mmol^−1, 10 μCi μl^−1) was added to a 50 ml aliquot of the cultivation. Untreated cultures were labelled in parallel and in a similar manner. Samples of 2 ml were collected during a time course. Labelled total protein in cell extracts and culture supernatant was measured using scintillation counting of TCA insoluble material in the samples, and labelled specific proteins (e.g. CBHI) were analysed using 2D gel electrophoresis, and the proteins were quantified using a phosphorimager (Molecular Dynamics). The rates of protein synthesis and secretion, and the average synthesis time and minimum secretion time were determined as described in Pakula et al. 2000.
The effect of the treatments on the synthesis of extracellular proteins, specifically, and on their transport was studied using the major cellulase produced by the fungus, cellobiohydrolase I (CBHI), as a model protein. […] The effect of the treatment with the ionophore A23187 on protein transport was less pronounced. Formation of the full pI pattern of CBHI was delayed by 15-20 minutes compared to the control cells, and CBHI with full pattern of the pI forms was secreted into the culture medium but with a delay.
The labelled CBHI from samples of cell extract and culture supernatant at different time points of the labelling experiment was analysed in 2D gels and quantified using a phosphorimager (Molecular Dynamics). Parameters, such as the synthesis and secretion rate of CBHI (the amount of labelled protein produced per time unit) as well as the average synthesis time and the minimum secretion time of CBHI, were determined (for the method see Pakula et al. 2000). The quantification of the labelled CBHI during the labelling experiment is shown in FIG. 3, and the deduced parameters describing the synthesis and secretion of CBHI in these conditions are summarised in the Table 1. The average synthesis time of full-length CBHI was not affected in the DTT and BFA treated cultures, being in accordance with the result that total protein synthesis is not affected by these treatments (see above).

[4] = 5 μM A23187, 50 μg/ml BFA or 10 mM DTT

Row | SMILES | pdiA and bipA mRNA response (A. niger AB4.1) | Levels of pepA mRNA (A. niger AB4.1; control cultures show an increase) | Expression level of sar1 and ypt1 (T. reesei Rut-C30 [1]; 10 mM DTT) | Transcript level of xyn1 and hfb2 (T. reesei Rut-C30 [1]; 10 mM DTT) | Expression of the short form of hac1 mRNA (T. reesei Rut-C30 [1]) | Total protein secretion rate (T. reesei Rut-C30 [2]) | CBHI synthesis rate (T. reesei Rut-C30 [3]; [4]) | CBHI secretion rate (T. reesei Rut-C30 [3]; [4]) | Total protein synthesis rate (T. reesei Rut-C30 [2]; TCA insoluble radioactivity in cell extracts) | Delay of formation of the full pI pattern of CBHI compared to the control cells (T. reesei Rut-C30 [3]; 5 μM A23187) | Increase of minimum secretion time of CBHI compared to the control cultures (T. reesei Rut-C30 [3]; 5 μM A23187) | Prolongation of synthesis time of CBHI compared to the control cultures (T. reesei Rut-C30 [3]; 5 μM A23187) | Average time of CBHI synthesis (T. reesei Rut-C30 [3]; untreated cells 5.7 min, 5 μM A23187, 50 μg/ml BFA or 10 mM DTT) | Minimum secretion time of CBHI (T. reesei Rut-C30 [3]; [4])
1 | O[C@H](CS)[C@H](O)CS (racemic) [DTT, dithiothreitol] | rapid response | no significant increase | not affected | reduced | expression of the shortened, actively translated form | 5% | 4-24% | no production of labelled CBHI into the culture medium was detected |  |  |  |  |  | 
2 | CNc1ccc2oc(C[C@H]3O[C@@]4(CC[C@H]3C)O[C@H]([C@H](C)C(=O)c3ccc[nH]3)[C@H](C)C[C@H]4C)nc2c1C(=O)O [A23187] |  |  |  |  | transient and rather weak expression | 23% | 26% | 27% | 51% | 15-20 minutes | 10 min | 3 to 4 min | 9 min | 21 min
3 | C[C@H]1CCC/C=C/[C@@H]2C[C@H](O)C[C@H]2[C@H](O)/C=C/C(=O)O1 [BFA, brefeldin A] |  |  |  |  | expression of the shortened, actively translated form | 5% | 52% | 4% |  |  |  |  |  | 69 min
